Test results reported in paper PMC6017193, “Structure-Based Discovery of a Series of 5H-Pyrrolo[2,3-b]pyrazine FGFR Kinase Inhibitors” (Molecules : A Journal of Synthetic Chemistry and Natural …, 2018).

Assays:
[1] = system: KG1 leukemia cell line harboring FGFR1OP-FGFR1 fusion; test: Cell proliferation assay in KG1 cells (SRB or MTT, 72 h); format: cell-based; conditions: Homo sapiens, KG-1, mean ± SD from two separate experiments, read-out: KG1 IC50 (antiproliferation activity)
Description: Cell proliferation was examined in a FGFR1-translocated KG1 leukemia cell line harboring FGFR1OP-FGFR1 fusion. The original KG1 cell line was purchased from ATCC (CRL-8031), and cultured according the ATCC standard protocol. Cells were seeded in 96-well tissue culture plates. On the next day, the cells were exposed to various concentrations of compounds and further cultured for 72 h. Cell proliferation was then determined using sulforhodamine B (SRB, from Sigma-Aldrich, St Louis, MO, USA) or the thiazolyl blue tetrazolium bromide (MTT, from Sigma-Aldrich, St Louis, MO, USA) assay. The IC50 values were calculated by concentration- response curve fitting using the four-parameter method.

FGFR2 = FGFR2 (Homo sapiens, UniProt P21802); test: Kinase panel profiling; format: biochemical
Sequence of FGFR2 (P21802 22-821): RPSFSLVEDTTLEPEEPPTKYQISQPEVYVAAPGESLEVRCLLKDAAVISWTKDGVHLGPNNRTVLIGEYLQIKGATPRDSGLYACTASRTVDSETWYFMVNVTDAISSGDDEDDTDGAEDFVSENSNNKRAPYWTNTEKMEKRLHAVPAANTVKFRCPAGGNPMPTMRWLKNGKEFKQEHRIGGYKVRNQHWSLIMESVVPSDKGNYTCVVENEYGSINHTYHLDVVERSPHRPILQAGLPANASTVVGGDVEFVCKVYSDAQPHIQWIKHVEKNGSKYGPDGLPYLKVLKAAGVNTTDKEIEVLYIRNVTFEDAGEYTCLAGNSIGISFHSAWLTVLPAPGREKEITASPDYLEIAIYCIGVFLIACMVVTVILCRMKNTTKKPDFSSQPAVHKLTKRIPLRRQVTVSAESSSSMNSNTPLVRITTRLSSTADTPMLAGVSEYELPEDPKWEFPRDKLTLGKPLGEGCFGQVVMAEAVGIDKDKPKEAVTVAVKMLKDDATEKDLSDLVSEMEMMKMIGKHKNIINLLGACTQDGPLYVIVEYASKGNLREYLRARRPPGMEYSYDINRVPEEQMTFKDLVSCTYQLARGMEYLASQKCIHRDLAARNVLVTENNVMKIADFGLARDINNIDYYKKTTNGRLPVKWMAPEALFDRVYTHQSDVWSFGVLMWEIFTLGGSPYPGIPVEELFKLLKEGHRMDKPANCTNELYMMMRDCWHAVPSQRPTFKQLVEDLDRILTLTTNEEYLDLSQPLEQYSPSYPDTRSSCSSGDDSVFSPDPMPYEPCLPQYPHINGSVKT

VEGFR-1 = VEGFR-1 (Homo sapiens, UniProt P17948); test: Kinase panel profiling; format: biochemical
PDGFR-β = PDGFR-β (Homo sapiens, UniProt P09619); test: Kinase panel profiling; format: biochemical
Sequence of PDGFR-β (P09619 33-1106, species assumed): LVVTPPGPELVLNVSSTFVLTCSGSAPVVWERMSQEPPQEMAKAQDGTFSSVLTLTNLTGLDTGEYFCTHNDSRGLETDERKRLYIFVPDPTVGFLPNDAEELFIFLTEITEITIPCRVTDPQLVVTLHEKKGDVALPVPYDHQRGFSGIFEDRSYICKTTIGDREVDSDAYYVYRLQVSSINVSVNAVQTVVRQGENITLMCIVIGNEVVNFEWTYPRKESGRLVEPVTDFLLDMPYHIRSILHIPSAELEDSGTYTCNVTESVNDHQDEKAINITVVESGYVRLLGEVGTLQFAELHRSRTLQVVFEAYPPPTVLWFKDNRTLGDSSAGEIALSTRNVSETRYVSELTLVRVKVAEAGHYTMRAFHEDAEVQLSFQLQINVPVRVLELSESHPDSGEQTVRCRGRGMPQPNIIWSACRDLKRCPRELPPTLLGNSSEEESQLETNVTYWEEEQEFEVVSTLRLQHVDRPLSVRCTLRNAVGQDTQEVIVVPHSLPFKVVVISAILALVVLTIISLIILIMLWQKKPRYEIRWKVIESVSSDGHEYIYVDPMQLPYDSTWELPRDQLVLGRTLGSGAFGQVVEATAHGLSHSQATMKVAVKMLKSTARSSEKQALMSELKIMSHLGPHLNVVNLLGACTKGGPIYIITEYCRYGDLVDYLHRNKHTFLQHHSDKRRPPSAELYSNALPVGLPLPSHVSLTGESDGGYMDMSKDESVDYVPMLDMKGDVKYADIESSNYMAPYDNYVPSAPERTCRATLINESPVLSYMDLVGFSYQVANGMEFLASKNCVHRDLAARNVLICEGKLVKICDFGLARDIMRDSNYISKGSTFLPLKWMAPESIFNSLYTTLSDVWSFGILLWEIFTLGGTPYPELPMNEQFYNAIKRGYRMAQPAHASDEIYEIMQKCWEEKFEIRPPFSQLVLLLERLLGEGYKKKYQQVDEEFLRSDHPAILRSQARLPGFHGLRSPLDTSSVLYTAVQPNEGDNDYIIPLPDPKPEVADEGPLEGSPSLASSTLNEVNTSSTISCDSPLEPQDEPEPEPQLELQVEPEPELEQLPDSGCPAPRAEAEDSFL

EGFR = EGFR (Homo sapiens, UniProt P00533); test: Kinase panel profiling; format: biochemical
Sequence of EGFR (P00533 25-1210, species assumed): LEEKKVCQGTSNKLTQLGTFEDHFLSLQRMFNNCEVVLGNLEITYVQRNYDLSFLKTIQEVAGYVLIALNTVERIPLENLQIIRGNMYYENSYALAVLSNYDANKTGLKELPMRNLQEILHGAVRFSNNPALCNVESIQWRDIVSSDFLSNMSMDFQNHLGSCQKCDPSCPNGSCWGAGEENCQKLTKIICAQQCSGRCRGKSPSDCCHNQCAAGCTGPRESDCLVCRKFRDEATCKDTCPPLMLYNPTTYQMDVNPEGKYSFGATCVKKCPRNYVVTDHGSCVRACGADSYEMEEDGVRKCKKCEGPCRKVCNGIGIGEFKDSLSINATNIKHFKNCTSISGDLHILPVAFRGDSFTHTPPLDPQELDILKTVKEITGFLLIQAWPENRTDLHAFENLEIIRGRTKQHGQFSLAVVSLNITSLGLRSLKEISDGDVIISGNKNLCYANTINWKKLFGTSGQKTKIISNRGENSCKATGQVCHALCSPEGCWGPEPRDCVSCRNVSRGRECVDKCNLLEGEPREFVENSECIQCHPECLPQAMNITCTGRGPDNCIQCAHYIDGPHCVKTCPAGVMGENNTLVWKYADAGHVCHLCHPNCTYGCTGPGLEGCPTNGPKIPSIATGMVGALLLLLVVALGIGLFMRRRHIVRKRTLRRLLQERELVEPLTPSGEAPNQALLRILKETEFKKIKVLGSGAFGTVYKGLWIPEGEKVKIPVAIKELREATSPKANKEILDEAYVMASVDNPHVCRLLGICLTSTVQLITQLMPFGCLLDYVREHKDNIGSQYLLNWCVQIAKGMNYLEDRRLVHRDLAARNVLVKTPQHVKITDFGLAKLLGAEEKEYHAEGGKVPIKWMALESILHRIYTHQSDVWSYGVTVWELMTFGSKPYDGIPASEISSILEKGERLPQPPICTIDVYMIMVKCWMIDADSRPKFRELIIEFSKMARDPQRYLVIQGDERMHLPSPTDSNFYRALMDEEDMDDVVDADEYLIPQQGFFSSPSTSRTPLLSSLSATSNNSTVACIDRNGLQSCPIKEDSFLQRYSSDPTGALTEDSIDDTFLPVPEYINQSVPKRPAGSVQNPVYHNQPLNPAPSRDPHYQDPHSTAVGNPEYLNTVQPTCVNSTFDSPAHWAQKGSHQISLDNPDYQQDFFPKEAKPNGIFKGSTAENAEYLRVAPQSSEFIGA

Src = Src (Homo sapiens, UniProt P12931); test: Kinase panel profiling; format: biochemical
Sequence of Src (P12931 whole entry, species assumed): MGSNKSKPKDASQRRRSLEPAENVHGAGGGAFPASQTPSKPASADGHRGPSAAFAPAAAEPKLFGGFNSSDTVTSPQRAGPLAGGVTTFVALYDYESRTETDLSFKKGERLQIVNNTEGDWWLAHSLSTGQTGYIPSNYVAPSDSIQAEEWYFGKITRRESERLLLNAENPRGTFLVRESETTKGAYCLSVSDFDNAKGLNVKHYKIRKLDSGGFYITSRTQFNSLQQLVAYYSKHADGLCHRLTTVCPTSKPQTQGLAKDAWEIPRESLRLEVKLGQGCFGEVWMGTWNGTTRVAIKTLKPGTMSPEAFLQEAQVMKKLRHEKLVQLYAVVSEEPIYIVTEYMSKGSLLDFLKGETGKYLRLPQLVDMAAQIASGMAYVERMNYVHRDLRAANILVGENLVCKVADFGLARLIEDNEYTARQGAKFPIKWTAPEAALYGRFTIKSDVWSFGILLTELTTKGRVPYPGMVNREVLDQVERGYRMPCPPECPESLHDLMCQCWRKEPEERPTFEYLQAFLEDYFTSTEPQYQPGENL

Abl = Abl (Homo sapiens, UniProt P00519); test: Kinase panel profiling; format: biochemical
Sequence of Abl (P00519 whole entry, species assumed): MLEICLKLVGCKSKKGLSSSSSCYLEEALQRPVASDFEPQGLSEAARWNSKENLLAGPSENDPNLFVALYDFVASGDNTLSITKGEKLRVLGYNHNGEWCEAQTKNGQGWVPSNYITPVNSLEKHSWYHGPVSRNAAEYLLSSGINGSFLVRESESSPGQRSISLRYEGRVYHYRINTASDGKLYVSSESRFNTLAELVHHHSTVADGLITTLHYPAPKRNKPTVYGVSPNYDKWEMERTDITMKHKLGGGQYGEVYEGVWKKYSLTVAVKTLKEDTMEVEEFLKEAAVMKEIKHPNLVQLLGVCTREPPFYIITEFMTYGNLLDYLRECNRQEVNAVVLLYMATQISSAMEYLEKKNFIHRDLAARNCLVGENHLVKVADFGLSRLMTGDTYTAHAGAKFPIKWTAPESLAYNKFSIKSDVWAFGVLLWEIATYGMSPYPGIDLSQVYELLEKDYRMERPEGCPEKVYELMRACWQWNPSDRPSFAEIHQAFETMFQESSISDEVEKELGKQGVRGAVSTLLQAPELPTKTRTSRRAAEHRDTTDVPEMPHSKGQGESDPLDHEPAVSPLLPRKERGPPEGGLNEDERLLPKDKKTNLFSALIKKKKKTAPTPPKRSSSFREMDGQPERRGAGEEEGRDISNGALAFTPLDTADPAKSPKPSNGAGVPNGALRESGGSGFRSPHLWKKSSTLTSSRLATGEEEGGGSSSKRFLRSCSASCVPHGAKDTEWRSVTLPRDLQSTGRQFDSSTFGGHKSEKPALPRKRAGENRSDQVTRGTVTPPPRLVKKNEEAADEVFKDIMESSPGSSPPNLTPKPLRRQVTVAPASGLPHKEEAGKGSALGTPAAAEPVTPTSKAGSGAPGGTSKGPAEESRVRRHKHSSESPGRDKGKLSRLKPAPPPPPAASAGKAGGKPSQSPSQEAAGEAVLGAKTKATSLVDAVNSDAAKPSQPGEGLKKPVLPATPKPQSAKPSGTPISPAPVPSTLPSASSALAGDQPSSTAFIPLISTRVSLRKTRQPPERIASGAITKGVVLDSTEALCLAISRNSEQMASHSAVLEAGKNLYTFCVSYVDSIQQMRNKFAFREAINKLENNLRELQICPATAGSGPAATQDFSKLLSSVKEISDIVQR

ROS1 = ROS1 (Homo sapiens, UniProt P08922); test: Kinase panel profiling; format: biochemical
DDR2 = target: T1, DDR2 (Homo sapiens, UniProt Q16832); test: Kinase panel profiling; format: biochemical
T1 sequence (Q16832 22-855): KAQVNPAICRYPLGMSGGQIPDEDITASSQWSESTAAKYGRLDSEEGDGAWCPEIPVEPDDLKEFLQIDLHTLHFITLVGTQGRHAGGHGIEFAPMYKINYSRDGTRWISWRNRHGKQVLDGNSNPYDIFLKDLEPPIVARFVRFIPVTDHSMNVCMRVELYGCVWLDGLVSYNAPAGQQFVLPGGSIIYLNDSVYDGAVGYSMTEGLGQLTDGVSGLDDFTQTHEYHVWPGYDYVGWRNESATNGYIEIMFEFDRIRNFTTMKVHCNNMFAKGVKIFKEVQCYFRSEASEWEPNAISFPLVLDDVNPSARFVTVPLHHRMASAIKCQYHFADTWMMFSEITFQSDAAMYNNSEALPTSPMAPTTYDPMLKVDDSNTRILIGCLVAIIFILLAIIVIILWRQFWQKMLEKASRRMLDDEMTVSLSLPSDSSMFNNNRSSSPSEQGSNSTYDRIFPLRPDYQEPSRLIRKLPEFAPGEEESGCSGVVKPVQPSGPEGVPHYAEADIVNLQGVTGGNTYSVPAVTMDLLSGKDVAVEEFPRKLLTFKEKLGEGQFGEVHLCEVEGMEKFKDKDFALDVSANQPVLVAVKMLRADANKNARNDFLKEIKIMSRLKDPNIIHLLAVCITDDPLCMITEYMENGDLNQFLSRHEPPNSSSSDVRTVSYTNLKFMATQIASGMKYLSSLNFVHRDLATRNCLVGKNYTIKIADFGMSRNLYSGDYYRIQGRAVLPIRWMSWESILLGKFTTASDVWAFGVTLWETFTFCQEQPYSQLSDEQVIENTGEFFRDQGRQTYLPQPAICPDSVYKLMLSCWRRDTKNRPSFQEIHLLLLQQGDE

[2] = Human liver microsome stability test; format: in vitro ADME; conditions: human liver microsomes, pH 7.4, 1 μM test compound, read-out: HLM (human liver microsome stability test, clearance)
Description: Microsomes (Human microsome: Xenotech, Lot No.H0610; Rat microsome: Xenotech, Lot No. R1000) (0.5 mg/mL) were preincubated with 1 μM of test compound for 5 min at 37 °C in 0.1 M phosphate buffer (pH 7.4) with 1 mmol Ethylenediaminetetraacetic acid (EDTA), and 5 mmol MgCl2. The reactions were initiated by adding prewarmed cofactors (1 mmol NADPH). After 0-min, 5-min, 10-min, and 30-min incubations at 37 °C, the reactions were stopped by adding an equal volume of cold acetonitrile. The samples were vortexed for 10 min, and then centrifuged at 10,000× g for 10 min. Supernatants were analyzed by LC/MS/MS for the amount of the parent compound remaining, and the corresponding loss of the parent compound was also determined by LC/MS/MS.

Structure (SMILES): O=S(=O)(c1cn(CCF)cn1)n1ccc2ncc(-c3cn[nH]c3)nc21 [Compound 13, 5-((1-(2-fluoroethyl)-1H-imidazol-4-yl)sulfonyl)-3-(1H-pyrazol-4-yl)-5H-pyrrolo[2,3-b]pyrazine]
- IC50 [1]: 29.1 ± 5.5 nM
- inhibition at 0.01 µM (FGFR2; 10 nM): 60.9%
- inhibition at 0.1 µM (FGFR2; 100 nM): 92%
- inhibition at 1 µM (FGFR2; 1000 nM): 97.2%
- inhibition at 0.01 µM (VEGFR-1; 10 nM): 0%
- inhibition at 0.1 µM (VEGFR-1; 100 nM): 4.9%
- inhibition at 1 µM (VEGFR-1; 1000 nM): 0%
- inhibition at 0.01 µM (PDGFR-β; 10 nM): 12.8%
- inhibition at 0.1 µM (PDGFR-β; 100 nM): 30.1%
- inhibition at 1 µM (PDGFR-β; 1000 nM): 58.6%
- inhibition at 0.01 µM (EGFR; 10 nM): 0%
- inhibition at 0.1 µM (EGFR; 100 nM): 0%
- inhibition at 1 µM (EGFR; 1000 nM): 0%
- inhibition at 0.01 µM (Src; 10 nM): 0%
- inhibition at 0.1 µM (Src; 100 nM): 0%
- inhibition at 1 µM (Src; 1000 nM): 0%
- inhibition at 0.01 µM (Abl; 10 nM): 0%
- inhibition at 0.1 µM (Abl; 100 nM): 0%
- inhibition at 1 µM (Abl; 1000 nM): 0%
- inhibition at 0.01 µM (ROS1; 10 nM): -3.8%
- inhibition at 0.1 µM (ROS1; 100 nM): 3%
- inhibition at 1 µM (ROS1; 1000 nM): 11.8%
- inhibition at 0.01 µM (DDR2; 10 nM): 3.6%
- inhibition at 0.1 µM (DDR2; 100 nM): 0.9%
- inhibition at 1 µM (DDR2; 1000 nM): 4.6%
- microsomal CLint at 1 μM [2]: 1 µL/min/mg
